# Laboratory results as given in publication PMC6934184, “Selective DNA-PKcs inhibition extends the therapeutic index of localized radiotherapy and chemotherapy” (The Journal of Clinical Investigation, 2019).
# Experiments:
# DNA-PK = DNA-PK (Homo sapiens, UniProt P78527); test: radiation-induced phospho-DNA-PK Ser2056 in MCF7 cells, Western blot; assay type: cell-based; set-up: endogenous in cells; host or cells: MCF7; conditions: 1 h pretreatment, 30 min after 10 Gy IR, read-out: IC50, radiation-induced activation of DNA-PK (phospho–DNA-PK Ser2056)
# Description: Exponentially growing MCF7 cells were exposed to a range of concentrations of NU5455 and NU7441 (0.03–10 μM) for 1 hour. To assess the ability of NU5455 and NU7441 to inhibit autophosphorylation of DNA-PKcs at Ser2056, cells were treated with 10 Gy irradiation and incubated for 30 minutes. Alternatively, to investigate the effects of NU5455 and NU7441 against PI3K-dependent phosphorylation of AKT at Ser473, cells were treated with 50 ng/mL insulin-like growth factor-1 (IGF-1; Invitrogen) for 30 minutes. Cell lysates were prepared for the detection of p–DNA-PKcs Ser2056 and total DNA-PKcs, or p–AKT Ser473 and total AKT, respectively, using Western blotting. […]
# Protein lysates were quantified using the Pierce BCA Protein Assay (ThermoFisher). […]
# Membranes were then washed in TBST and incubated with HRP-conjugated goat anti-mouse or anti-rabbit antibodies (P0447 and P0448 respectively, Dako) in 5% (w/v) milk/TBST at room temperature for 1-2 hours. Conjugates were detected using Clarity Western ECL Substrate (BioRad) and chemiluminescence imaged using the Fuji LAS-3000 Luminescent Image Analyzer System (Fujifilm). […]
# Alternatively, basal pAKT Ser473 levels were subtracted from all other pAKT bands, and pAKT band intensity calculated relative to total AKT expression and given as a percentage relative to IGF-1 stimulated, DMSO-treated cells. […]
# [1] = pharmacokinetic analysis in Calu-6 tumor–bearing mice; assay type: in vivo, mouse; conditions: 30-mg/kg oral dose
# Description: by determining the absorbance at 570 nm of SRB stain dissolved in Tris base (10 mM, pH 10.5) using a spectrophotometer (BMG Labtech).
# In vivo pharmacokinetic analyses
# All animal experiments were performed in accordance with the Animals (Scientific Procedures) 1986 Act. 8-9 week old mice were purchased from Charles River Laboratories and housed under specific pathogen-free conditions under 12 hour light/dark cycles.
# Female CD-1, CD-1 nude, BALB/c nude and C57BL/6 mice were treated with NU5455 (30 or 100 mg/kg prepared in 1% (v/v) acetic acid or NMP:Encapsin (30% aq):PEG4000 (1:6:3 v/v/v) dosed by oral gavage. Blood samples were collected into heparinized tubes at 15, 30, 60, 180 and 360 minutes post-gavage.
# Blood samples were centrifuged at 6700 x g for 3 minutes, the plasma removed and stored at -20°C prior to analysis for drug by HPLC with fluorescence detection. Aliquots of plasma (50 µl) were vigorously vortexed with acetonitrile (450 µl) and the precipitate removed by centrifugation at 6700 x g for 5 minutes. […]
# Samples (20 µl) were applied to a 10 x 0.46 cm Genesis C18 4 µm column (Grace Vydac) fitted with an in-line filter. […] Analytes were detected by fluorescence at 390 nm following excitation at 242 nm. Plasma concentrations were determined using linear standard curves (0.01 µM – 10 µM, R2 > 0.98) generated by extracting compounds from […]
structure (smiles),measurement,setting,value
CN(C(=O)CN1CCOCC1)c1ccc2sc3c(-c4cccc5c(=O)cc(N6CC7CCC(C6)O7)oc45)cccc3c2c1 [NU5455],IC50,DNA-PK,168 nM
same,"period NU5455 concentrations in plasma, lung, tumor, or surrounding skin maintained at approximately 1 μM (0.6 μg/mL or μg/g tissue) or above",[1],3 h
